In ChEMBL document CHEMBL5465560, “Selectivity Literature for EUbOPEN Chemogenomic Library” (2024):

How the values were obtained:
Mu-type opioid receptor = Mu-type opioid receptor (Homo sapiens, UniProt P35372); test: Selectivity interaction (Panel of non-epigenetic targets (kinases, GPCRs, ion channels, and transporters, Eurofins) ) EUB0000271b OPRM1; conditions: at 1 µM
[1] = target: T1, Aurora kinase A (Homo sapiens) (UniProt O14965); test: Selectivity interaction (Kinase panel (DSF assay)) EUB0001489b STK6
T1 sequence (whole entry): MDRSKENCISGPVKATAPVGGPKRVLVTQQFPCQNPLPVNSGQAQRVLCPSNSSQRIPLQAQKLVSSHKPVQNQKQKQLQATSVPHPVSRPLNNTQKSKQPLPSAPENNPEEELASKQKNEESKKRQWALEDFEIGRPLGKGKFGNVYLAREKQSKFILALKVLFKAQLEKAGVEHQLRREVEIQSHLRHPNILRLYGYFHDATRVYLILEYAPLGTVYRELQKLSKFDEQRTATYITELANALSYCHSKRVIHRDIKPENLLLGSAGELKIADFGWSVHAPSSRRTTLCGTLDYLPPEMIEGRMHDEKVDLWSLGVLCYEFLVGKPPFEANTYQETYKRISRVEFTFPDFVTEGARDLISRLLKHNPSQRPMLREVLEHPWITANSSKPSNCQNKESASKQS

[2] = target: Histone-lysine N-methyltransferase, H3 lysine-36 specific (Homo sapiens) (UniProt Q96L73); test: Selectivity interaction (Methyltransferase screen (radiometric assays, panel of 8 PRMTs, 21 protein lysine methyltransferases, 3 DNA methyltransferases, and one RNA methyltransferase)) EUB0000272b NSD1; conditions: at 10 µM
[3] = target: Homeodomain-interacting protein kinase 2 (Homo sapiens, UniProt Q9H2X6); test: Selectivity interaction (KinomeScan (DiscoverX)) EUB0000618a HIPK2; conditions: at 10 µM
[4] = target: Serine/threonine-protein kinase N2 (Homo sapiens, UniProt Q16513); test: Selectivity interaction (KinomeScan (DiscoverX)) EUB0000045b PKN2
[5] = target: Cyclin-dependent kinase 18 (Homo sapiens) (UniProt Q07002); test: Selectivity interaction (KinomeScan (DiscoverX)) EUB0000595a CDK18; conditions: at 10 µM
[6] = target: Phosphatidylinositol 4-kinase beta (Homo sapiens, UniProt Q9UBF8); test: Selectivity interaction (KinomeScan (DiscoverX)) EUB0000595a PI4KB; conditions: at 10 µM
SRSF protein kinase 1 = SRSF protein kinase 1 (Homo sapiens, UniProt Q96SB4); conditions: at 10 µM
[7] = target: T2, Serine/threonine-protein kinase tousled-like 1 (Homo sapiens) (UniProt Q9UKI8); test: Selectivity interaction (ActivX KiNativ screen (kinase selectivity in THP-1 cell lysates)) EUB0000639a TLK1; assay type: subcellular; conditions: lysate, at 1 µM
T2 sequence (whole entry): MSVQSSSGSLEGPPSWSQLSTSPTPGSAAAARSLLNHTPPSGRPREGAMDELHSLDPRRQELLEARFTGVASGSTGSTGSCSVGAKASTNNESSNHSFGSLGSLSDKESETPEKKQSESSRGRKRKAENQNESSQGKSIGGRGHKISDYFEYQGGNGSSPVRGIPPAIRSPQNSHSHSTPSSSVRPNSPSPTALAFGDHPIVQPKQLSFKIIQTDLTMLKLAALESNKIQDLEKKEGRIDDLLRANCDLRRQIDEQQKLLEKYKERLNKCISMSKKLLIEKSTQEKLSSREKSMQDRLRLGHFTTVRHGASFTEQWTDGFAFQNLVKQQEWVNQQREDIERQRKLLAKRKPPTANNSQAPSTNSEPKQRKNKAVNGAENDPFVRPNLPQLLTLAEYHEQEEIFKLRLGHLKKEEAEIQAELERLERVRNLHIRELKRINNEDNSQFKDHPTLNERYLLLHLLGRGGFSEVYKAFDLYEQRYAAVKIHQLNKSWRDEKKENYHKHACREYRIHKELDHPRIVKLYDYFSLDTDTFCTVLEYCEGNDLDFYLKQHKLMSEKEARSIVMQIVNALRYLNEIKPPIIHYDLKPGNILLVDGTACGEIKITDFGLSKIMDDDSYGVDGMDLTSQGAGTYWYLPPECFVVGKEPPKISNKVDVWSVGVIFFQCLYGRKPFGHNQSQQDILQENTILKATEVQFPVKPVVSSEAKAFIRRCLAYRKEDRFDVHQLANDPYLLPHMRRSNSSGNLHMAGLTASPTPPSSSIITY

[8] = target: Serine/threonine-protein kinase SBK1 (Homo sapiens) (UniProt Q52WX2); test: Selectivity interaction (Kinase panel (Z-LYTE Assay)) EUB0001632a SBK1; conditions: at 10 µM
[9] = test system: RAF proto-oncogene serine/threonine-protein kinase (Homo sapiens), P04049 [Y340D,Y341D]; test: Selectivity interaction (LanthaScreen Eu Kinase Binding Assay) EUB0001632a RAF1; conditions: at 10 µM
[10] = target: Protein kinase C eta type (Homo sapiens) (UniProt P24723); test: Selectivity interaction (Kinase screening (Nanosyn)) EUB0000604a PRKCH
Chain of Protein kinase C eta type (Homo sapiens) (P24723 whole entry): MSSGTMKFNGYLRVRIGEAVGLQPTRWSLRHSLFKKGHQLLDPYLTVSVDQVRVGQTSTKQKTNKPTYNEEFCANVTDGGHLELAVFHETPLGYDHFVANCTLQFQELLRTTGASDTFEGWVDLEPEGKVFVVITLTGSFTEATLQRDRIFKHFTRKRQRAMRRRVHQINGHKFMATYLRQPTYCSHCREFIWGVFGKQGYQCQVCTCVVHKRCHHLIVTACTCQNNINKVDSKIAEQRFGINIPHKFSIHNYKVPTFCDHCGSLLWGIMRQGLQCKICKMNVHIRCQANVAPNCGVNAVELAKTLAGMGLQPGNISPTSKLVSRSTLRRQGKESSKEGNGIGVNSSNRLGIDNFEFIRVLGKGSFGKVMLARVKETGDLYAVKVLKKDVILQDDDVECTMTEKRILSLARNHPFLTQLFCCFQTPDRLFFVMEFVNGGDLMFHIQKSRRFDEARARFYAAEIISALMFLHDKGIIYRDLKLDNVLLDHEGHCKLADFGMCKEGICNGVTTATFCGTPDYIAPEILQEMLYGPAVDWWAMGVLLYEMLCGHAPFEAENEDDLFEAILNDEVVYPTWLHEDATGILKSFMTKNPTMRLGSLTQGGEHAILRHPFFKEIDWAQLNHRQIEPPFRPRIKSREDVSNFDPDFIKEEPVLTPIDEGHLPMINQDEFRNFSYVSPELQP

Chain of Serine/threonine-protein kinase N2 (Q16513 whole entry, looked up): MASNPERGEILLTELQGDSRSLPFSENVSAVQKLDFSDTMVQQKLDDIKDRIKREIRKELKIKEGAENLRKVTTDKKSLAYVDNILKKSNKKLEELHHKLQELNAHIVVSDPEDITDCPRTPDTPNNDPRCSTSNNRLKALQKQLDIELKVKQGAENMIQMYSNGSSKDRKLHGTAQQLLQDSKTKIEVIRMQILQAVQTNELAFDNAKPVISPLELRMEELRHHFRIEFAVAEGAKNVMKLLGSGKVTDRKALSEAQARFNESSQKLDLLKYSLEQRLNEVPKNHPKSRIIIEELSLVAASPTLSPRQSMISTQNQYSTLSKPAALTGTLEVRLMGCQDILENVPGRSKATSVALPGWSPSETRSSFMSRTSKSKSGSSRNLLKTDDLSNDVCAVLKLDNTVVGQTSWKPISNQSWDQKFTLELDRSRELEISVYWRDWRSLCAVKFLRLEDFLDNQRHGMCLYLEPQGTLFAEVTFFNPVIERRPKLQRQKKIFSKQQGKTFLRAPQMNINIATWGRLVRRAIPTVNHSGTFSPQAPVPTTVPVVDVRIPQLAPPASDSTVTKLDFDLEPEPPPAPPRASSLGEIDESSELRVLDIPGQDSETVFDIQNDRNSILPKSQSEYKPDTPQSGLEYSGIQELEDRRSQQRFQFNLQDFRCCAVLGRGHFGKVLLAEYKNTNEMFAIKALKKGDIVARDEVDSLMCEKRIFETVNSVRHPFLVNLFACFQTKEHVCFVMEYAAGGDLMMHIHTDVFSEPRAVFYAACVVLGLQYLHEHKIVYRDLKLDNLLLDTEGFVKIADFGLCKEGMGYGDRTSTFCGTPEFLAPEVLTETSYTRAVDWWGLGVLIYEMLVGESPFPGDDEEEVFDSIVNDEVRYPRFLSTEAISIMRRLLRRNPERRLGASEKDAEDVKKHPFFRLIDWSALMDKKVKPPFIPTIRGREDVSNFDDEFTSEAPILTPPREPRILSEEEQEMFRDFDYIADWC
Chain of Mu-type opioid receptor (P35372 whole entry): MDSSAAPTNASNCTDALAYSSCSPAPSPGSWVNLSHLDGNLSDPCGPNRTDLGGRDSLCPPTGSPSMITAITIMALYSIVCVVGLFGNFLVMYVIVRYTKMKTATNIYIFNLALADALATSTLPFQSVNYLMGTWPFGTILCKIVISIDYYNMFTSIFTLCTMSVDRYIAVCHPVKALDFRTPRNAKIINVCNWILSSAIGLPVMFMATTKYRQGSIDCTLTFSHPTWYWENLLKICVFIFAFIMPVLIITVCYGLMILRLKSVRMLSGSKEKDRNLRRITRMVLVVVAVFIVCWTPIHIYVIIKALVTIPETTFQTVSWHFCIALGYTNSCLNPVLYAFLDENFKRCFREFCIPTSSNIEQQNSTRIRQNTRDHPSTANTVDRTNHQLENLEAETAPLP
Chain of SRSF protein kinase 1 (Q96SB4 whole entry): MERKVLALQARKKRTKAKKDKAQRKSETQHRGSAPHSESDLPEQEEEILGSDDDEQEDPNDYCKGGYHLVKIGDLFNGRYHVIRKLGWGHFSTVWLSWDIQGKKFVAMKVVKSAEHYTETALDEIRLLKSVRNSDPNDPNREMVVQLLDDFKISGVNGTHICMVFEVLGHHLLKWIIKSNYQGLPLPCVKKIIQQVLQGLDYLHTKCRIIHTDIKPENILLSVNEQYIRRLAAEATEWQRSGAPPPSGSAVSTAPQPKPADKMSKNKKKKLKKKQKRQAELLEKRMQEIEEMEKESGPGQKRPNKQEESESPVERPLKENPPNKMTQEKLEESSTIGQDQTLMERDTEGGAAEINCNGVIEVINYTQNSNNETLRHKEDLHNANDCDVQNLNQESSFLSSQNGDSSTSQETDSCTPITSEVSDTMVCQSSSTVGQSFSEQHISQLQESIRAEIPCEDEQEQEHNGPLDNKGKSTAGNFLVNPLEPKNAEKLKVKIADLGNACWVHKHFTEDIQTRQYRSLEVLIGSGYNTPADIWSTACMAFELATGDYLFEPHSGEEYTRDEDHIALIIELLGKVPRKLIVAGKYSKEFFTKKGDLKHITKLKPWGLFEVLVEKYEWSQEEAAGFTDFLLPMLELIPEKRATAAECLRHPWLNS
Chain of Phosphatidylinositol 4-kinase beta (Q9UBF8 2-816 limits assumed): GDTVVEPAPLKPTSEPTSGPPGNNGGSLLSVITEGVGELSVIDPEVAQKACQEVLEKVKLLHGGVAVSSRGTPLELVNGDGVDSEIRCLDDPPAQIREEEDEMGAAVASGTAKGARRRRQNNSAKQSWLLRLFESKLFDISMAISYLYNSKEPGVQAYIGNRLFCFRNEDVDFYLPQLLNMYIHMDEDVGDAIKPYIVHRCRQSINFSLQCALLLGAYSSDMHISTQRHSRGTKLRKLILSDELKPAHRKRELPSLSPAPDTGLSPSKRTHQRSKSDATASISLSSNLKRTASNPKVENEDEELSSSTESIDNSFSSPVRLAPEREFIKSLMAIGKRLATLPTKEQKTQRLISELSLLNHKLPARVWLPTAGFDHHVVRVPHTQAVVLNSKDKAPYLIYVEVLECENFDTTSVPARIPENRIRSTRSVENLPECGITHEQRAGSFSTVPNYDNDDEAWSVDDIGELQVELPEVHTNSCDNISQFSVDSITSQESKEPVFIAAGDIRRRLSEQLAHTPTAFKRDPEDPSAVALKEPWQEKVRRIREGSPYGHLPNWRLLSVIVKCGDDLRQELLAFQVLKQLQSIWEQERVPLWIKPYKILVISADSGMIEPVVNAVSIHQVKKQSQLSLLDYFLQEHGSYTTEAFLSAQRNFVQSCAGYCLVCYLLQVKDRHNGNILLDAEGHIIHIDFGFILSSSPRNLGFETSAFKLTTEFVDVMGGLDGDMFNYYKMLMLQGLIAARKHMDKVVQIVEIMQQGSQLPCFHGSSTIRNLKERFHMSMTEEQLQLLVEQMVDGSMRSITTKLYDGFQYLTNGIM
Chain of Cyclin-dependent kinase 18 (Homo sapiens) (Q07002 whole entry): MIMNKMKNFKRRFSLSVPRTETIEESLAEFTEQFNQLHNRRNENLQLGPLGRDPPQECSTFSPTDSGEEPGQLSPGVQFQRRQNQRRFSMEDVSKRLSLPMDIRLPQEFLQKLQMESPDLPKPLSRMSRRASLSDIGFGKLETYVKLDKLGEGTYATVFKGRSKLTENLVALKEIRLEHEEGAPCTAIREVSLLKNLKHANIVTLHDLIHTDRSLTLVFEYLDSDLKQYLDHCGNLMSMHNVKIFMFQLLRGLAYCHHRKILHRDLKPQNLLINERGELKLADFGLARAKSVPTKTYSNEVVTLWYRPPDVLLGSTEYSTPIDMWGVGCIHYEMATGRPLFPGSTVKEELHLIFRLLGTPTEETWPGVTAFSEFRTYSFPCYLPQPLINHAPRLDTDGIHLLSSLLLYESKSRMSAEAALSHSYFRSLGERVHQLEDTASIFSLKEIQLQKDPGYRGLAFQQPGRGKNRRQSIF
Chain of RAF proto-oncogene serine/threonine-protein kinase (Homo sapiens), P04049 [Y340D,Y341D] (P04049 whole entry Y340D/Y341D): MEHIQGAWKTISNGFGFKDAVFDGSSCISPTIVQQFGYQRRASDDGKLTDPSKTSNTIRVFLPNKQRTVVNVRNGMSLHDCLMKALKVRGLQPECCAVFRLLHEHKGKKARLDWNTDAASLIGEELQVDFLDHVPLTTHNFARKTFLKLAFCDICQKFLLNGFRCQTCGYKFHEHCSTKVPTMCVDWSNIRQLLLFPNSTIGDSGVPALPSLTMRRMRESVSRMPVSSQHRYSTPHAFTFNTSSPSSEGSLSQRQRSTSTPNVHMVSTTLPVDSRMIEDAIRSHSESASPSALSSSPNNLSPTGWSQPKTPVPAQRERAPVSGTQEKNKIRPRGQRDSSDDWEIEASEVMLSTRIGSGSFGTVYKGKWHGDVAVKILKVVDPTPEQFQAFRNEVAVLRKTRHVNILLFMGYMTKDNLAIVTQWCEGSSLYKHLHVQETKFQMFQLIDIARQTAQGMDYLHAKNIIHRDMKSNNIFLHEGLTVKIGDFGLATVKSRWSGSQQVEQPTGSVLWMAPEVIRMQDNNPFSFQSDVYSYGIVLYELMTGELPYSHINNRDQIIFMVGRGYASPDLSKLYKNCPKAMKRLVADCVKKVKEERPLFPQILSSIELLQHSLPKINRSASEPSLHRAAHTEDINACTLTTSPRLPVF

Q: For `Cc1cc(C)cc([C@@H]2c3cc(C)ccc3NC(=O)CN2C(=O)c2ccc(Br)s2)c1`, which % of inhibition (Mu-type opioid receptor) is on record?
A: 4%

Q: For `CN1CCN(C(=O)c2ccc3cc2OCCOCCNc2ccn4ncc-3c4n2)CC1`, which dTM [1] is on record?
A: 4.2 K

Q: With `Cc1cc(C)cc([C@H]2c3cc(C)ccc3NC(=O)CN2C(=O)c2ccc(Br)s2)c1` as the molecule, how does the % of activity [2] read?
A: 104%

Q: `O[C@H]1CC[C@H](Nc2ncc3nc(Nc4c(F)cc(F)cc4F)n([C@H]4CCOC4)c3n2)CC1` was tested. Which % of control [3] did it give?
A: 86%

Q: For `C=CC(=O)Nc1cc(-n2c(=O)ccc3cnc4ccc(-c5ccc(NS(C)(=O)=O)cc5)cc4c32)ccc1C`, which % of control ([4]; at 1 µM) is on record?
A: 100%

Q: And the % of control ([4]; at 10 µM)?
A: 100%

Q: Which results are given for `COCC(=O)NC/C=C/c1ccc2ncnc(Nc3ccc(Oc4ccc(C)nc4)c(C)c3)c2c1` [CP-724714]?
A: % of control [5]: 99%; % of control [6]: 100%

Q: `Cc1cc([C@@H](C)Nc2ccccc2C(=O)O)c2nc(N3CCOCC3)cc(=O)n2c1` [AZD-6482] was tested. Which % of control (SRSF protein kinase 1) did it give?
A: 100%

Q: How did the % of inhibition [7] turn out when `CC[C@@H]1[C@H](F)C(=O)N[C@@H]1COc1nccc2cc(C(N)=O)c(OC)cc12` [ZIMLOVISERTIB] was run?
A: 34.3%

Q: Which results are given for `Cn1cc(-n2cnc3c(NCc4nc5cc(Cl)c(Cl)cc5[nH]4)nc(N4CCOCC4)nc32)cn1`?
A: % of control [8]: -0.405%; % of inhibition [9]: 5.65%

Q: `Cc1cnc(Nc2ccc(F)cc2Cl)nc1-c1c[nH]c(C(=O)N[C@H](CO)c2cccc(Cl)c2)c1` was tested. Which % of inhibition [10] did it give?
A: 2%
